Reference: patent publication US20240109925A1, “Enhanced Anti-Proliferative and Antitumor Immune Effects of Mitochondria-Targeted Hydroxyurea” (The Medical College of Wisconsin, Inc., priority 2021, published 2024)
Like-named read-outs stand apart in the source and are kept apart here.

What was measured:
[1] = tested on: MiaPaCa-2 human pancreatic cancer cells; assay: Cell proliferation, IncuCyte Live-Cell Analysis system; assay type: cell-based
Excerpt: FIG. 7. Effects of HU and Mito10-HU on proliferation of MiaPaCa-2 human pancreatic cancer cells; MiaPaCa-2 cells treated with HU or Mito10-HU were monitored in the IncuCyte Live-Cell Analysis system. Cell proliferation was monitored in real-time with the continuous presence of indicated treatments until the end of each experiment. Data shown are the means±SD.
The following cell lines were obtained from the American Type Culture Collection (Manassas, VA), where they were regularly authenticated: HCT116 (ATCC Cat #CRL-247, human colon cancer cells) and MiaPaCa-2 (ATCC Cat #CRL-1420, human pancreatic cancer cells). All cells were cultured in a humidified incubator at 37° C. and 5% carbon dioxide. HCT116 cells were maintained in RPMI 1640 medium (Thermo Fisher Scientific, Cat #11875), supplemented with 10% fetal bovine serum. MiaPaCa-2 cells were maintained in Dulbecco's Modified Eagle Medium (Thermo Fisher Scientific, Waltham, MA; Cat #11965) supplemented with 10% fetal bovine serum. All cells were stored in liquid nitrogen and used within 20 passages after thawing.
The IncuCyte Live-Cell Analysis system (Essen Bioscience Inc., Ann Arbor, MI) was used to monitor cell proliferation (Cheng et al., 2013, 2016; Boyle et al., 2018). As shown in previous publications (Cheng et al., 2013, 2016), this imaging system is probe-free and noninvasive, and enables continuous monitoring of cell confluence over several days. The increase in the percentage of cell confluence was used as a surrogate marker of cell proliferation. In a 96-well plate, cells were plated at 1,000 cells per well in triplicates and left to adhere overnight. Cells were then treated with HU and Mito-HUs, and the cell confluency was recorded over several days in the IncuCyte Live-Cell Analysis system.

[2] = target: mitochondrial complex I (Homo sapiens, UniProt O75251+O75306+P03886); assay: Complex I-dependent oxygen consumption (OCR), Seahorse XF-96, HCT116 cells; assay type: cell-based
Method: (§1) FIG. 2. Effects of HU and Mito-HUs on the oxygen consumption by mitochondrial complexes I and III (A) Dose-dependent effects of HU, Mito10-HU, Mito12-HU, Mito14-HU, Mito16-HU, and Mito20-HU on complex I- and complex III-dependent oxygen consumption were measured in HCT116 cells. HCT116 cells were treated with HU or Mito-HUs as indicated for 24 hr. Mitochondrial complex I activity (left) and complex III activity (right) were monitored by a Seahorse XF-96 analyzer. Either rotenone (complex I inhibitor) or antimycin A (complex III inhibitor) was acutely added and OCR assayed immediately. (B) The mitochondrial complex I (left) and III (right) dependent oxygen consumption (calculated as rotenone or antimycin A inhibitable OCR) are plotted against concentration of HU and Mito-HUs. Dashed lines represent the fitting curves used for determination of the IC50 values. Data shown are the means G SD.
(§2) Mitochondrial oxygen consumption was measured using the Seahorse XF-96 Extracellular Flux Analyzer (Agilent, North Billerica, MA) (Cheng et al., 2013, 2016; Boyle et al., 2018; Weinberg and Chandel, 2015). After cells were treated with HU or Mito-HUs for 24 hr, the OCR-based assessment of mitochondrial complex activities was carried out on acutely permeabilized cells in the presence of different mitochondrial substrates, i.e., pyruvate/malate for complex I and duroquinol for complex III (Cheng et al., 2016, 2019; Salabei et al., 2014; Wheaton et al., 2014). Rotenone, malonate, and antimycin A (Sigma-Aldrich, St. Louis, MO) were used as specific inhibitors of mitochondrial complexes I, II, and III, respectively. Briefly, cells that were intact after treatments were immediately permeabilized using the Seahorse XF Plasma Membrane Permeabilizer (Agilent). The mitochondrial complex I-induced OCR was assayed in mannitol and sucrose buffer (Salabei et al., 2014) containing 10 mM pyruvate and 1.5 mM malate (substrates for complex I) and 10 mM malonate (which inhibits complex II activities). The mitochondrial complex III-driven OCR was assayed in a mannitol and sucrose buffer containing 0.5 mM duroquinol (substrate for complex III) as well as […] and 10 mM malonate (which inhibit both complex I and II activities). The IC50 values were determined as previously reported (Cheng et al., 2019).

[3] = tested on: mitochondrial complex III; assay: Complex III-dependent oxygen consumption (OCR), Seahorse XF-96, HCT116 cells; assay type: cell-based, human; conditions: 24 hr, HCT116, n = 4
Method: as §1, §2

[4] = tested on: HCT116 human colon cancer cells; assay: Cell proliferation (cell confluence), IncuCyte Live-Cell Analysis system; assay type: cell-based
[5] = mean ± SD; HCT116, 24 hr treatment; read-out: IC50 Complex I (FIG. 2)

NC(=O)NOCCCCCCCCCCCC[P+](c1ccccc1)(c1ccccc1)c1ccccc1.O=C([O-])C(F)(F)F [Mito12-HU, 12-[(carbamoylamino)oxy]-dodecyltriphenylphosphonium trifluoroacetate]
inhibition of proliferation of MiaPaCa-2 cells [1]: increasing antiproliferative potencies | effect on complex I-induced oxygen consumption ([2]; HCT116, 24 hr): potently inhibited | IC50 [2, 5]: 1.6 ± 0.16 µM | Complex III activity (OCR, % of control) ([3]; 1.5 μM): 74.02 % of control | Complex III activity (OCR, % of control) ([3]; 2 μM): 55.15 % of control | Complex III activity (OCR, % of control) ([3]; 2.5 μM): 51.26 % of control | Complex III activity (OCR, % of control) ([3]; 4 μM): 35.02 % of control | Complex III activity (OCR, % of control) ([3]; 7.5 μM): 24.56 % of control

NC(=O)NOCCCCCCCCCCCCCCCC[P+](c1ccccc1)(c1ccccc1)c1ccccc1.O=C([O-])C(F)(F)F [Mito16-HU, 16-[(carbamoylamino)oxy]-hexadecyltriphenylphosphonium trifluoroacetate]
inhibition of proliferation of MiaPaCa-2 cells [1]: increasing antiproliferative potencies | effect on complex I-induced oxygen consumption ([2]; HCT116, 24 hr): potently inhibited | IC50 [2, 5]: 0.8 ± 0.05 µM | Complex III activity (OCR, % of control) ([3]; 0.4 μM): 81.38 % of control | Complex III activity (OCR, % of control) ([3]; 0.5 μM): 79.37 % of control | Complex III activity (OCR, % of control) ([3]; 0.6 μM): 80.12 % of control | Complex III activity (OCR, % of control) ([3]; 0.8 μM): 68.47 % of control

NC(=O)NOCCCCCCCCCCCCCC[P+](c1ccccc1)(c1ccccc1)c1ccccc1.O=C([O-])C(F)(F)F [Mito14-HU, 14-[(carbamoylamino)oxy]-tetradecyltriphenylphosphonium trifluoroacetate]
effect on complex I-induced oxygen consumption ([2]; HCT116, 24 hr): potently inhibited | IC50 [2, 5]: 1 ± 0.12 µM

NC(=O)NOCCCCCCCCCC[P+](c1ccccc1)(c1ccccc1)c1ccccc1.O=C([O-])C(F)(F)F [Mito10-HU, 10-[(carbamoylamino)oxy]-decyltriphenylphosphonium trifluoroacetate]
inhibition of proliferation of MiaPaCa-2 cells [1]: increasing antiproliferative potencies | potency compared with HU in inhibiting MiaPaCa-2 cell proliferation [1]: ~100 times | effect on complex I-induced oxygen consumption ([2]; HCT116, 24 hr): potently inhibited | IC50 [2, 5]: 8.9 ± 1.22 µM | antiproliferative effect, each alone (AZD-3965 experiment) ([4]; Mito10-HU (5 μM) or AZD-3965 (100 μM) independently, HCT-116): negligible antiproliferative effects | effect on cell proliferation, each alone (syrosingopine experiment) ([4]; Mito10-HU (5 μM) or syrosingopine (7.5 μM) independently, HCT116): minimally affected cell proliferation

NC(=O)NO [HU, Hydroxyurea]
effect on complex I-induced oxygen consumption ([2]; HCT116, 24 hr): no apparent effects | remaining activity at 10 µM ([2]; HCT-116; 10 μM, 24 hr, HCT116; n = 4; read-out: Complex I activity (OCR, % of control)): 84.7% | remaining activity at 30 µM ([2]; HCT-116; 30 μM, 24 hr, HCT116; n = 4; read-out: Complex I activity (OCR, % of control)): 77% | remaining activity at 100 µM ([2]; HCT-116; 100 μM, 24 hr, HCT116; n = 4; read-out: Complex I activity (OCR, % of control)): 87.9% | remaining activity at 150 µM ([2]; HCT-116; 150 μM, 24 hr, HCT116; n = 4; read-out: Complex I activity (OCR, % of control)): 86.1% | remaining activity at 200 µM ([2]; HCT-116; 200 μM, 24 hr, HCT116; n = 4; read-out: Complex I activity (OCR, % of control)): 86.5% | remaining activity at 250 µM ([2]; HCT-116; 250 μM, 24 hr, HCT116; n = 4; read-out: Complex I activity (OCR, % of control)): 91.3% | remaining activity at 300 µM ([2]; HCT-116; 300 μM, 24 hr, HCT116; n = 4; read-out: Complex I activity (OCR, % of control)): 85.7% | remaining activity at 400 µM ([2]; HCT-116; 400 μM, 24 hr, HCT116; n = 4; read-out: Complex I activity (OCR, % of control)): 70.5% | remaining activity at 500 µM ([2]; HCT-116; 500 μM, 24 hr, HCT116; n = 4; read-out: Complex I activity (OCR, % of control)): 82.1% | remaining activity at 1000 µM ([2]; HCT-116; 1000 μM, 24 hr, HCT116; n = 4; read-out: Complex I activity (OCR, % of control)): 80.2% | remaining activity at 3000 µM ([2]; HCT-116; 3000 μM, 24 hr, HCT116; n = 4; read-out: Complex I activity (OCR, % of control)): 83.1% | IC50 ([2]; read-out: IC50 Complex I (FIG. 2); mean ± SD; HCT116, 24 hr treatment): > 3000 µM

NC(=O)NOCCCCCCCCCCCCCCCCCCCC[P+](c1ccccc1)(c1ccccc1)c1ccccc1.O=C([O-])C(F)(F)F [Mito20-HU, 20-[(carbamoylamino)oxy]-eicosanyltriphenylphosphonium trifluoroacetate]
inhibition of proliferation of MiaPaCa-2 cells [1]: increasing antiproliferative potencies | IC50 [2, 5]: 0.8 ± 0.06 µM | Complex III activity (OCR, % of control) ([3]; 0.03 μM): 98.80 % of control | Complex III activity (OCR, % of control) ([3]; 0.1 μM): 106.63 % of control | Complex III activity (OCR, % of control) ([3]; 0.2 μM): 101.11 % of control | Complex III activity (OCR, % of control) ([3]; 0.3 μM): 107.99 % of control | Complex III activity (OCR, % of control) ([3]; 0.5 μM): 102.43 % of control | Complex III activity (OCR, % of control) ([3]; 20 μM): 12.77 % of control
